# Like-named read-outs stand apart in the source and are kept apart here.
# Columns and labels:
# AR1-651 = target: T1, AR1-651 (Homo sapiens, UniProt P10275); assay: MMTV-luc dual luciferase reporter assay, AR1-651-induced activity in 22RV1 cells; format: cell-based; settings: for MMTV-luc Activity (%), AR1-651-induced: 22RV1, AR1-651 +, 12 h;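 on all read-outs here: luminometric read-out of firefly luciferase signal normalized to Renilla luciferase signal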
# T1 construct: FLAG; expressed in transfected cells; host or cells: 22RV1
# T1 sequence (P10275 1-651): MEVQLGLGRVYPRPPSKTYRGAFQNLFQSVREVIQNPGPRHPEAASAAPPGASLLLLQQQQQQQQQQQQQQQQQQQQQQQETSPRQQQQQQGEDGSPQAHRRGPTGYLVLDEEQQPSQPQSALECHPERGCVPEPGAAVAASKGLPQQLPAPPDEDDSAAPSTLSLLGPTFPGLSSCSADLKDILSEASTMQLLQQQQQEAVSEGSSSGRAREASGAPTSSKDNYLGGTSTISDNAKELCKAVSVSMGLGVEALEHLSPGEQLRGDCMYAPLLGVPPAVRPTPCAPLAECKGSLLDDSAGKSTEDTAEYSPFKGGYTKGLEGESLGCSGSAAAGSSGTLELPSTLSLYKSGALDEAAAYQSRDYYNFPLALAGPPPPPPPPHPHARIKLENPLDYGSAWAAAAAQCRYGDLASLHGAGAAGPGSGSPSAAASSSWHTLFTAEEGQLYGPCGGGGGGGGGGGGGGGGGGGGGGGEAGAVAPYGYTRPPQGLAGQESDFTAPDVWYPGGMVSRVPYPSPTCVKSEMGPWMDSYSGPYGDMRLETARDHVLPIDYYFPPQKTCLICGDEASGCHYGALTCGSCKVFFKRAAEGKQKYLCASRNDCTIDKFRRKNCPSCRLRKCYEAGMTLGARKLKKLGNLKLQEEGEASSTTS
# Protocol: (§1) Renilla and firefly activities were then determined by luminometry using the Dual-Luciferase Reporter Assay System (Promega) and the ratio calculated. Results were expressed as the ratio of firefly to Renilla luciferase activity.
# AR-FL = AR-FL (Homo sapiens, UniProt P10275); assay: MMTV-luc dual luciferase reporter assay, DHT-induced AR activity in 22RV1 cells; format: cell-based; settings: 22RV1, DHT +, compound 10 µM, 12 h, mean ± s.d., n=3
# Protocol: as §1
# After transient transfection of MMTV-luc and Renilla-luc in 22RV1, the MMTV-luc
# activities were stimulated by androgen DHT. Then cells were treated with indicated
# expressed as the ratio of luciferase activity. Values are presented as mean ± s.d., n =
# [1] = compound 10 µM, mean ± s.d., n=3
# [2] = 22Rv1, read-out: MMTV-luc Activity (%), AR1-651-induced, 22RV1, AR1-651 +, compound 1 µM, 12 h
# [3] = 22Rv1, read-out: MMTV-luc Activity (%), AR1-651-induced, 22RV1, AR1-651 +, compound 10 µM, 12 h, mean ± s.d., n=3
# [4] = 22Rv1, read-out: MMTV-luc Activity (%), AR1-651-induced
# Chain of AR-FL (P10275 whole entry): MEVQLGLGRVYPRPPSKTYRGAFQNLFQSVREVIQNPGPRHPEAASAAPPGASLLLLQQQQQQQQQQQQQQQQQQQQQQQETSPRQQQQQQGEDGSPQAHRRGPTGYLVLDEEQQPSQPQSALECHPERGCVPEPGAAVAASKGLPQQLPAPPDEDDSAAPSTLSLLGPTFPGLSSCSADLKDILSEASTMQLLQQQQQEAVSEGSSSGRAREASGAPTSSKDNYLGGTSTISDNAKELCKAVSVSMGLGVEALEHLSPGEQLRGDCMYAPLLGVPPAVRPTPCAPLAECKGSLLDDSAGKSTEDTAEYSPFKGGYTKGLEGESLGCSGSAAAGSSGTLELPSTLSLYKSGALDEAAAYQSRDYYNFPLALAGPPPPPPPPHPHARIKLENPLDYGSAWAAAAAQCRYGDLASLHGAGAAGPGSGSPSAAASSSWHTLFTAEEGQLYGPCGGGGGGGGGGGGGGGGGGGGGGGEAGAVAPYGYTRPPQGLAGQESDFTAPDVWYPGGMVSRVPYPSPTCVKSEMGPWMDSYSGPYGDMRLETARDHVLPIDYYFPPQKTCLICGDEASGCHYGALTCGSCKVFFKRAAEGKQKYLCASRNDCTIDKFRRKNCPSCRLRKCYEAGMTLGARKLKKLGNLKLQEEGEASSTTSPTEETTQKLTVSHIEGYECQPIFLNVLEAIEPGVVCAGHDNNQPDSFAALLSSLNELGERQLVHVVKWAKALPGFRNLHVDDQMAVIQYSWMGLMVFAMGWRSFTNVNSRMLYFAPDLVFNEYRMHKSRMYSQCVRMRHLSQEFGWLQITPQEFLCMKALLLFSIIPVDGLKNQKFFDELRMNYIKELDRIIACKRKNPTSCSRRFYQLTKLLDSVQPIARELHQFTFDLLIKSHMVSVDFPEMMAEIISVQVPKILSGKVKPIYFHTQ
Molecule,"MMTV-luc Activity (%), AR1-651-induced (AR1-651; [1]) [%]",activity at 10 µM (AR1-651; [3]) [%],further results
O=C1CCC[C@@H]2[C@H]3CCC[N@+]4([O-])CCC[C@@H](CN12)[C@@H]34 [Ammothamnine],105.7,–,"MMTV-luc Activity (%), DHT-induced (AR-FL): 119.1±20.9%"
C=C1CC[C@@H]2[C@](C)(CO)[C@H](O)CC[C@@]2(C)[C@@H]1C/C=C1/C(=O)OC[C@H]1O [Andrographolide],–,59.5,activity at 1 µM (AR1-651; [2]): 70%
O=C1C=CC2(CCC23C=CC(=O)O3)O1 (centres unmarked) [Anemonin],–,112,–
O=C(O)[C@H]1O[C@@H](Oc2cc3oc(-c4ccccc4)cc(=O)c3c(O)c2O)[C@H](O)[C@@H](O)[C@@H]1O [Baicalin],–,113,–
C=C(C)[C@@H]1CC[C@]2(C(=O)O)CC[C@]3(C)[C@H](CC[C@@H]4[C@@]5(C)CC[C@H](O)C(C)(C)[C@@H]5CC[C@]43C)[C@@H]12 [Betulinic acid],–,65.2,–
CC(C)(C)[C@]1(O)CC2OC(=O)CC23C(=O)OC2OC(=O)[C@H](O)C231 (some centres unmarked) [Bilobalide],–,–,activity at 10 µM (AR1-651; [4]): 98.7 ± 1.1%
COc1cc(/C=C/C(=O)CC(=O)/C=C/c2ccc(O)c(OC)c2)ccc1O [Curcumin],–,178,–
C=C1C[C@@]2(O)O[C@@]3(C[C@H]2C(C)C)[C@@H](C)CC[C@@H]13 [Curcumol],43.7,–,"MMTV-luc Activity (%), AR1-651-induced (AR1-651; compound 1 µM): 86.4±7.7%; MMTV-luc Activity (%), DHT-induced (AR-FL): 90.0±9.2%"
O=c1c(-c2ccc(O)cc2)coc2cc(O)ccc12 [Daidzein],–,177,–
O=C1c2c(O)cc(O)cc2O[C@H](c2cc(O)c(O)c(O)c2)[C@H]1O [Dihydromyricetin],–,89.8 ± 8,–
C[C@@H]1CC[C@@]2(OC1)O[C@H]1C[C@H]3[C@@H]4CC=C5C[C@@H](O)CC[C@]5(C)[C@H]4CC[C@]3(C)[C@H]1[C@@H]2C [Diosgenin],–,148,–
"CC(C)(c1ccc(OCC(O)CO)cc1)c1ccc(OCC(O)CCl)cc1 (stereo not drawn) [EPI-001, reference compound]",–,–,"MMTV-luc Activity (%), AR1-651-induced (AR1-651; compound 25 µM): 54.2%"
CC(C)[C@@H](C)/C=C/[C@@H](C)[C@H]1CC[C@H]2C3=CC=C4C[C@@H](O)CC[C@]4(C)[C@H]3CC[C@]12C [Ergosterol],–,96.3 ± 6.1,–
OCc1ccc(O[C@@H]2O[C@H](CO)[C@@H](O)[C@H](O)[C@H]2O)cc1 [Gastrodin],–,–,activity at 10 µM (AR1-651; [4]): 70 ± 3.7%
O=c1c(-c2ccc(O)cc2)coc2cc(O)cc(O)c12 [Genistein],–,157,–
CC(C)=CCC[C@](C)(O[C@@H]1O[C@H](CO)[C@@H](O)[C@H](O)[C@H]1O)[C@H]1CC[C@]2(C)[C@@H]1[C@H](O)C[C@@H]1[C@@]3(C)CC[C@H](O)C(C)(C)[C@@H]3[C@@H](O[C@@H]3O[C@H](CO)[C@@H](O)[C@H](O)[C@H]3O)C[C@]12C [Ginsenoside Rg1],–,77.2,–
COc1ccc([C@@H]2CC(=O)c3c(O)cc(O[C@@H]4O[C@H](CO[C@@H]5O[C@@H](C)[C@H](O)[C@@H](O)[C@H]5O)[C@@H](O)[C@H](O)[C@H]4O)cc3O2)cc1O [Hesperidin],110.2±13,–,"MMTV-luc Activity (%), DHT-induced (AR-FL): 85.5±23.9%"
O=c1c(O[C@@H]2O[C@H](CO)[C@@H](O)[C@H](O)[C@H]2O)c(-c2ccc(O)c(O)c2)oc2cc(O)cc(O)c12 [Isoquercitrin],–,95.5,–
COc1cc(-c2oc3cc(O)cc(O)c3c(=O)c2O)ccc1O [Isorhamnetin],–,–,activity at 10 µM (AR1-651; [4]): 139%
CCNC(=O)CC[C@H](N)C(=O)O [L-Theanine],–,61.9,–
O=c1cc(-c2ccc(O)c(O)c2)oc2cc(O)cc(O)c12 [Luteolin],–,82.7 ± 4.5,–
O[C@H]1[C@H]2c3cc4c(cc3CN3CCC(=C[C@@H]1O)[C@H]23)OCO4 [Lycorine],–,–,activity at 10 µM (AR1-651; [4]): 66%
C=CCc1ccc(O)c(-c2cc(CC=C)ccc2O)c1 [Magnolol],–,–,activity at 1 µM (AR1-651; [4]): 60.6%; activity at 10 µM (AR1-651; [4]): 59.3%

Molecule,"MMTV-luc Activity (%), AR1-651-induced (AR1-651; [1]) [%]",activity at 10 µM (AR1-651; [3]) [%],further results
CC1(C)CC[C@]2(C(=O)O)CC[C@]3(C)C(=CC[C@@H]4[C@@]5(C)CC[C@H](O)C(C)(C)[C@@H]5CC[C@]43C)[C@@H]2C1 [Oleanic acid],153.4,–,"MMTV-luc Activity (%), DHT-induced (AR-FL): 122.4±7.5%"
C[C@@]12C[C@@]3(O)O[C@@H](O1)[C@]1(COC(=O)c4ccccc4)[C@H]3C[C@@]12O[C@@H]1O[C@H](CO)[C@@H](O)[C@H](O)[C@H]1O [Paeoniflorin],–,88.5,–
O=C(CCc1ccc(O)cc1)c1c(O)cc(O)cc1O[C@@H]1O[C@H](CO)[C@@H](O)[C@H](O)[C@H]1O [Phlorizin],–,52.9,activity at 1 µM (AR1-651; [2]): 126%
CC1=CC(=O)c2c(O)cccc2C1=O [Plumbagin],–,28.8 ± 7.9,activity at 1 µM (AR1-651; [2]): 128%
Cc1cc(O)c(C(=O)CCC(C)C)c(=O)o1 [Pogostone],157.2,–,"MMTV-luc Activity (%), DHT-induced (AR-FL): 92.3±13.3%"
O=Cc1ccc(O)c(O)c1 [Protocatechuic aldehyde],62.5,–,"MMTV-luc Activity (%), DHT-induced (AR-FL): 83.1±0.1%"
COc1cc(/C=C/c2ccc(O)cc2)cc(OC)c1 [Pterostilbene],–,90 ± 5.4,–
O=c1c(-c2ccc(O)cc2)coc2c([C@@H]3O[C@H](CO)[C@@H](O)[C@H](O)[C@H]3O)c(O)ccc12 [Puerarin],–,80.1 ± 1.8,–
O=C(/C=C/c1ccc(O)c(O)c1)O[C@H](Cc1ccc(O)c(O)c1)C(=O)O [Rosmarinic acid],–,115,–
C[C@@H]1O[C@@H](OC[C@H]2O[C@@H](Oc3c(-c4ccc(O)c(O)c4)oc4cc(O)cc(O)c4c3=O)[C@H](O)[C@@H](O)[C@@H]2O)[C@H](O)[C@H](O)[C@H]1O [Rutin],–,91.4,–
O=C([O-])C(O)Cc1ccc(O)c(O)c1.[Na+] (centres unmarked) [Sodium Danshensu],73.3,–,"MMTV-luc Activity (%), DHT-induced (AR-FL): 93.0±14.7%"
C=C[C@H]1[C@H](O[C@@H]2O[C@H](CO)[C@@H](O)[C@H](O)[C@H]2O)OC=C2C(=O)OCC[C@]21O [Swertiamain],64.7±7.5,–,"MMTV-luc Activity (%), DHT-induced (AR-FL): 80.9±8.5%"
Cc1coc2c1C(=O)C(=O)c1c-2ccc2c1CCCC2(C)C [Tanshinone IIA],–,105,–
Cc1coc2c1C(=O)C(=O)c1c-2ccc2c(C)cccc12 [Tanshinone I],–,99.9 ± 4.1,–
CN1CCc2cc3c(cc2[C@H]1[C@@H]1OC(=O)c2c1ccc1c2OCO1)OCO3 [d-Bicuculline],112.1,–,"MMTV-luc Activity (%), DHT-induced (AR-FL): 75.0±11.5%"
CC1(C)[C@@H](O)CC[C@]2(C)[C@H]3C(=O)C=C4[C@@H]5C[C@@](C)(C(=O)O)CC[C@]5(C)CC[C@@]4(C)[C@]3(C)CC[C@@H]12 [glycyrrhetic acid],308.3,–,"MMTV-luc Activity (%), DHT-induced (AR-FL): 101.3±11.9%"
O=C(/C=C/c1ccc(O)c2c1[C@H](C(=O)O[C@H](Cc1ccc(O)c(O)c1)C(=O)O)[C@@H](c1ccc(O)c(O)c1)O2)O[C@H](Cc1ccc(O)c(O)c1)C(=O)O [lithospermic acid B],96.3±4.2,–,"MMTV-luc Activity (%), DHT-induced (AR-FL): 115.9±27.9%"
O=C(O)C1=C[C@@H](O)[C@@H](O)[C@H](O)C1 [shikimic acid],–,104,–
Asiaticoside,150.9,–,–
D-Tanshinone I,138.3,–,–
Myricitrin,102.1,–,–
astragalosideⅠ,87.0±5.2,–,"MMTV-luc Activity (%), DHT-induced (AR-FL): 117.8±5.2%"

# — PMC5159881 (Nature Communications, 2016)
